According to ChEMBL document CHEMBL4000252, “Discovery of N-(2-aminoethyl)-N-benzyloxyphenyl benzamides: New potent Trypanosoma brucei inhibitors” (Bioorg Med Chem, 2017):
Activity calls are given as the source filed them. The calls are words filed in the database; no cut-off is given here.

Columns and labels:
[1] = system: Trypanosoma brucei brucei; assay: Antiparasitic activity against Trypanosoma brucei brucei BF427 assessed as growth inhibition at 64 times EC50 pretreated for 48 hrs followed by compound washout measured after 10 days by light microscopic method; type: functional
[2] = Ratio of drug level in brain to plasma in mouse at 5 mg/kg, ip after 1 hr by LC-MS analysis; type: ADME, organism-based
[3] = Cmax in mouse at 50 mg/kg, po by LC-MS analysis; type: ADME, organism-based; set-up: dose 50 mg/kg, route oral; settings: in vivo
Liver [4] = assay: Half life in human liver microsomes at 1.5 uM by LC-MS analysis; type: ADME, microsome
[5] = system: Trypanosoma brucei brucei; assay: Antiparasitic activity against Trypanosoma brucei brucei BF427 assessed as growth inhibition at 64 times EC50 pretreated for 72 hrs followed by compound washout measured after 10 days by light microscopic method; type: functional
[6] = system: Trypanosoma brucei rhodesiense; assay: Antiparasitic activity against Trypanosoma brucei rhodesiense STIB900 infected in Swiss-Webster mouse assessed as cure rate at 50 mg/kg, bid administered via oral gavage from day 2 to 5 post infection measured after 60 days by microscopic method relative to control; type: functional
HepG2 = assay: Cytotoxicity against human HepG2 cells assessed as growth inhibition after 48 hrs by Alamar blue assay; type: cell-based; settings: hepg2, 48 h
[7] = system: Trypanosoma brucei brucei; assay: Antiparasitic activity against Trypanosoma brucei brucei BF427 assessed as growth inhibition at 16 times EC50 pretreated for 96 hrs followed by compound washout measured after 10 days by light microscopic method; type: functional
[8] = system: Trypanosoma brucei brucei; assay: Antiparasitic activity against Trypanosoma brucei brucei BF427 assessed as growth inhibition at 32 times EC50 pretreated for 24 hrs followed by compound washout measured after 10 days by light microscopic method; type: functional
[9] = AUC (0 to 8 hrs) in mouse at 50 mg/kg, po by LC-MS analysis; type: ADME, organism-based; set-up: dose 50 mg/kg, time < 8 hr, route oral; settings: in vivo
[10] = system: Trypanosoma brucei brucei; assay: Antiparasitic activity against Trypanosoma brucei brucei BF427 assessed as growth inhibition after 48 hrs by Alamar blue assay; type: functional; settings: BF427, 48 h
[11] = Cytotoxicity against human CRL8155 cells assessed as growth inhibition after 48 hrs by Alamar blue assay; type: cell-based; settings: crl8155, 48 h
[12] = system: Trypanosoma brucei brucei; assay: Antiparasitic activity against Trypanosoma brucei brucei TREU667 infected in mouse assessed as decrease in parasitemia at 50 mg/kg, bid administered via oral gavage on day 21 to 34 post infection measured on day 34 by microscopic method; type: functional, organism-based
[13] = system: Trypanosoma brucei brucei; assay: Antiparasitic activity against Trypanosoma brucei brucei TREU667 infected in mouse assessed as decrease in parasitemia at 50 mg/kg, bid administered via oral gavage on day 21 to 34 post infection measured on day 35 by microscopic method; type: functional, organism-based
[14] = system: Trypanosoma brucei brucei; assay: Antiparasitic activity against Trypanosoma brucei brucei TREU667 infected in mouse assessed as decrease in parasitemia at 50 mg/kg, bid administered via oral gavage on day 21 to 34 post infection measured on day 36 by microscopic method; type: functional, organism-based
Liver [15] = assay: Half life in mouse liver microsomes at 1.5 uM by LC-MS analysis; type: ADME, microsome
[16] = system: Trypanosoma brucei brucei; assay: Antiparasitic activity against Trypanosoma brucei brucei BF427 assessed as growth inhibition at 8 times EC50 pretreated for 72 hrs followed by compound washout measured after 10 days by light microscopic method; type: functional
[17] = system: Trypanosoma brucei brucei; assay: Antiparasitic activity against Trypanosoma brucei brucei BF427 assessed as growth inhibition at 16 times EC50 pretreated for 24 hrs followed by compound washout measured after 10 days by light microscopic method; type: functional
[18] = system: Trypanosoma brucei brucei; assay: Antiparasitic activity against Trypanosoma brucei brucei BF427 assessed as growth inhibition at 8 times EC50 pretreated for 48 hrs followed by compound washout measured after 10 days by light microscopic method; type: functional
[19] = system: Trypanosoma brucei brucei; assay: Antiparasitic activity against Trypanosoma brucei brucei TREU667 infected in mouse assessed as decrease in parasitemia at 50 mg/kg, bid administered via oral gavage on day 21 to 34 post infection measured on day 41 to 42 by microscopic method; type: functional, organism-based
[20] = system: Trypanosoma brucei brucei; assay: Antiparasitic activity against Trypanosoma brucei brucei BF427 assessed as growth inhibition at 4 times EC50 pretreated for 96 hrs followed by compound washout measured after 10 days by light microscopic method; type: functional
Cytochrome P450 3A4 = Cytochrome P450 3A4 (Homo sapiens, UniProt P08684); assay: Inhibition of human CYP3A4; type: ADME
[21] = system: Trypanosoma brucei brucei; assay: Antiparasitic activity against Trypanosoma brucei brucei BF427 assessed as growth inhibition at 16 times EC50 pretreated for 48 hrs followed by compound washout measured after 10 days by light microscopic method; type: functional
[22] = system: Trypanosoma brucei brucei; assay: Antiparasitic activity against Trypanosoma brucei brucei BF427 assessed as growth inhibition at 16 times EC50 pretreated for 72 hrs followed by compound washout measured after 10 days by light microscopic method; type: functional
[23] = system: Trypanosoma brucei rhodesiense; assay: Antiparasitic activity against Trypanosoma brucei rhodesiense STIB900 assessed as growth inhibition after 48 hrs by Alamar blue assay; type: functional; settings: STIB900, 48 h
[24] = system: Trypanosoma brucei brucei; assay: Antiparasitic activity against Trypanosoma brucei brucei TREU667 infected in mouse assessed as decrease in parasitemia at 10 mg/kg, ip administered as single dose on day 21 post infection measured on day 36 by microscopic method; type: functional, organism-based
[25] = system: Trypanosoma brucei brucei; assay: Antiparasitic activity against Trypanosoma brucei brucei TREU667 infected in mouse assessed as decrease in parasitemia at 10 mg/kg, ip administered as single dose on day 21 post infection measured on day 34 by microscopic method; type: functional, organism-based
[26] = system: Trypanosoma brucei brucei; assay: Antiparasitic activity against Trypanosoma brucei brucei TREU667 infected in mouse assessed as decrease in parasitemia at 10 mg/kg, ip administered as single dose on day 21 post infection measured on day 41 to 42 by microscopic method; type: functional, organism-based
[27] = system: Trypanosoma brucei brucei; assay: Antiparasitic activity against Trypanosoma brucei brucei TREU667 infected in mouse assessed as decrease in parasitemia at 10 mg/kg, ip administered as single dose on day 21 post infection measured on day 35 by microscopic method; type: functional, organism-based
[28] = system: Trypanosoma brucei brucei; assay: Antiparasitic activity against Trypanosoma brucei brucei TREU667 infected in mouse assessed as decrease in parasite levels in peripheries at 10 mg/kg, ip administered as single dose on day 21 post infection by microscopic method; type: functional, organism-based
[29] = system: Trypanosoma brucei brucei; assay: Antiparasitic activity against Trypanosoma brucei brucei TREU667 infected in mouse assessed as decrease in parasite levels in brain at 10 mg/kg, ip administered as single dose on day 21 post infection by microscopic method; type: functional, organism-based
[30] = system: Trypanosoma brucei brucei; assay: Antiparasitic activity against Trypanosoma brucei brucei TREU667 infected in mouse assessed as decrease in parasitemia at 10 mg/kg, ip administered as single dose on day 21 post infection measured on day 38 by microscopic method; type: functional, organism-based
[31] = system: Trypanosoma brucei brucei; assay: Antiparasitic activity against Trypanosoma brucei brucei TREU667 infected in mouse assessed as decrease in parasitemia at 10 mg/kg, ip administered as single dose on day 21 post infection measured on day 50 to 51 by microscopic method; type: functional, organism-based
[32] = system: Trypanosoma brucei brucei; assay: Antiparasitic activity against Trypanosoma brucei brucei TREU667 infected in mouse assessed as decrease in parasitemia at 10 mg/kg, ip administered as single dose on day 21 post infection measured on day 37 by microscopic method; type: functional, organism-based
[33] = system: Trypanosoma brucei brucei; assay: Antiparasitic activity against Trypanosoma brucei brucei TREU667 infected in mouse assessed as decrease in parasitemia at 10 mg/kg, ip administered as single dose on day 21 post infection measured on day 40 by microscopic method; type: functional, organism-based
[34] = system: Trypanosoma brucei brucei; assay: Antiparasitic activity against Trypanosoma brucei brucei TREU667 infected in mouse assessed as decrease in parasitemia at 10 mg/kg, ip administered as single dose on day 21 post infection measured on day 39 by microscopic method; type: functional, organism-based
[35] = system: Trypanosoma brucei brucei; assay: Antiparasitic activity against Trypanosoma brucei brucei TREU667 infected in mouse assessed as decrease in parasitemia at 10 mg/kg, ip administered as single dose on day 21 post infection measured on day 43 to 45 by microscopic method; type: functional, organism-based

Sequence of Cytochrome P450 3A4 (P08684 whole entry): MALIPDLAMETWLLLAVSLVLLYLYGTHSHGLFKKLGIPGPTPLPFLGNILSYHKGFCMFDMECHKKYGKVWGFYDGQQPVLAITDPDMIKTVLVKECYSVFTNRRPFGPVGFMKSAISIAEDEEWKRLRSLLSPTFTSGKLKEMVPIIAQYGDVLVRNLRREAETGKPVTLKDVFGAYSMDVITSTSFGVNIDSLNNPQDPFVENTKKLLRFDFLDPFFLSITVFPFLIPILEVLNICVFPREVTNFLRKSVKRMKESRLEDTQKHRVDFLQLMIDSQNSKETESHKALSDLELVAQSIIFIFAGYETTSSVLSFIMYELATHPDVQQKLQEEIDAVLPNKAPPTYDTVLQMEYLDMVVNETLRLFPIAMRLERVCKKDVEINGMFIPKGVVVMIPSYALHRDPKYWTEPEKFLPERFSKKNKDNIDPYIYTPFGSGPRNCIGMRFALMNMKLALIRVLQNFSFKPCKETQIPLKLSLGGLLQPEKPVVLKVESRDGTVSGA

| BPR [2] | Cmax [3] [nM] | t1/2 (Liver [4]) [min] | AUC(0-t) at 8 h [9] [µM·h] | EC50 [10] [nM] | t1/2 (Liver [15]) [min] | SMILES | Activity [6] | CC50 (HepG2) [µM] | growth inhibition (GI) [7] | growth inhibition (GI) [8] | CC50 [11] [µM] | also measured |
| --- | --- | --- | --- | --- | --- | --- | --- | --- | --- | --- | --- | --- |
| 0.06 | 2070 | 39 | 10.9 | 15 | – | Cc1cc(C)cc(COc2ccc(N(CCN)C(=O)c3cccnc3Cl)cc2)c1.Cl.Cl | 67 - 80% | 8.38 | Active | Active | 5.12 | growth inhibition (GI) [1]: Active; growth inhibition (GI) [5]: Active |
| 0.16 | 1890 | > 60 | 12.3 | 2 | > 60 | CC(C)c1ccc(COc2ccc(N(CCN)C(=O)c3cccnc3Cl)cc2)cc1.Cl | 67 - 80% | 10.5 | – | – | 4.03 | Activity [12]: Active; Activity [13]: Active; Activity [14]: Active; growth inhibition (GI) [16]: Active; growth inhibition (GI) [17]: Active; growth inhibition (GI) [18]: Active; Activity [19]: inactive; growth inhibition (GI) [20]: Active |
| 0.42 | 530 | > 60 | 3.42 | 31 | 35 | Cl.NCCN(C(=O)c1ccc(Cl)cc1Cl)c1ccc(OCc2ccc(Cl)cc2)cc1 | 67 - 80% | 2 | Active | Active | 2 | IC50 (Cytochrome P450 3A4): 179 nM; growth inhibition (GI) [21]: Active; growth inhibition (GI) [22]: Active; EC50 [23]: 5 nM |
| – | – | – | – | – | – | N=C(N)c1ccc(/N=N/Nc2ccc(C(=N)N)cc2)cc1 | – | – | – | – | – | Activity [24]: Active; Activity [25]: Active; Activity [26]: Active; Activity [27]: Active; Activity [28]: Active; Activity [29]: inactive; Activity [30]: Active; Activity [31]: inactive; Activity [32]: Active; Activity [33]: Active; Activity [34]: Active; Activity [35]: Active |
